Results as given in patent US11497747B2, “Compositions and methods for treating lung injuries associated with SARS-CoV-2 infections” (priority 2020, dated 2022).

Key:
[1] = tested on: MAP3K2/MAP3K3; test: MAP3K2/MAP3K3-mediated phosphorylation of p47phox; format: biochemical
[2] = tested on: MAP3K2/MAP3K3; conditions: MEK5 substrate; cited from earlier work
[3] = tested on: coronavirus (Murine Hepatitis Virus Strain 1, MHV-1) induced mouse lung injury model; test: pulmonary permeability (FITC-albumin in BAL) in mouse coronavirus induced acute lung injury model
[4] = tested on: patients; conditions: cited from earlier work
[5] = tested on: MAP3K2/MAP3K3; conditions: p47phox substrate; cited from earlier work
[6] = in vivo; cited from earlier work
[7] = tested on: coronavirus (Murine Hepatitis Virus Strain 1, MHV-1) induced mouse lung injury model; test: survival and body weight loss in mouse coronavirus induced acute lung injury model; conditions: 3 mg/kgbw retro-orbital once daily for 5 days since 24 hr after virus inoculation
[8] = tested on: neutrophils; conditions: cited from earlier work
[9] = cited from earlier work
[10] = tested on: acute lung injury (ALI); test: mouse ALI/ARDS models (acid-induced direct insult, LPS-induced indirect insult); format: in vivo; conditions: dependent on MAP3K2/3 and ROS production
[11] = tested on: acute lung injury (ALI); conditions: cited from earlier work

## 5-({4-[(2,3-Dimethyl-2H-indazol-6-yl)methylamino]pyrimidin-2-yl}amino)-2-methylbenzenesulfonamide [pazopanib]
[1]
  affinity as p47phox substrate-specific inhibitor for MAP3K2 and 3: low nanomolar
[2]
  inhibition of other substrates of MAP3K2/MAP3K3 such as MEK5: μM levels
[3]; 2 doses at 3 mg/kgbw retro-orbital, 24 and 33 h after 6000 PFU MHV-1, FIG. 2
  pulmonary permeability: significantly reduce
[3]; 3 doses at 3 mg/kgbw retro-orbital, 6, 21 and 32 h after 5000 PFU MHV-1, FIG. 1
  pulmonary permeability: significantly reduce
[3]; one dose 3 mg/kgbw retro-orbital at 24 hr after virus inoculation, FIG. 3
  pulmonary permeability: significantly reduce
[3]; one dose 3 mg/kgbw retro-orbital at 48 hr after virus inoculation, FIG. 4
  pulmonary permeability: significantly reduce
[3]; one dose 3 mg/kgbw retro-orbital at 72 hr after virus inoculation, FIG. 5
  pulmonary permeability: negligible effect
[4]; clinical trials
  ILD/pneumonitis reported in patients in the clinical trials: 0.1 % of patients
[4]; randomized RCC trial
  patients who developed a pneumothorax: [t]wo of 290
[4]; randomized STS trial (8/240)
  pneumothorax occurrence: 3%
[5]
  inhibition of MAP3K2/MAP3K3-mediated phosphorylation of p47phox: low nM levels
[6]
  bioavailability: 14-21%
  half-life: 30.9 to 31.9 h
[7]; FIG. 6
  survival rate: does not affect
[7]; FIG. 7
  body weight loss: does not affect
[8]
  ROS levels: elevates ROS levels
[9]
  protein binding: > 99.5%
[10]
  ameliorating ALI in the two mouse ALI/ARDS models: effective in ameliorating ALI

## Cc1ccc(NC(=O)c2ccc(CN3CCN(C)CC3)cc2)cc1Nc1nccc(-c2cccnc2)n1 [imatinib]
[5]
  inhibition of MAP3K2/MAP3K3-mediated phosphorylation of p47phox: do not inhibit

## COC(=O)c1ccc2c(c1)NC(=O)/C2=C(\Nc1ccc(N(C)C(=O)CN2CCN(C)CC2)cc1)c1ccccc1 [nintedanib, Methyl (3Z)-3-{[(4-{methyl[(4-methylpiperazin-1-yl)acetyl]amino}phenyl)amino](phenyl)methylidene}-2-oxo-2,3-dihydro-1H-indole-6-carboxylate]
[5]
  inhibition of MAP3K2/MAP3K3-mediated phosphorylation of p47phox: also inhibits
[11]
  reduction of ALI in mouse models: has been shown to reduce ALI
